From US10442807B2, “Aryl substituted bicyclic compounds as herbicides” (FMC Corporation, priority 2015, dated 2019)

What was measured:
Type in all cases: in vivo
[1] = test system: barnyardgrass (Echinochloa crus-galli); assay: Test A preemergence, directed soil spray, visual injury rating; settings: approx. 10 d, 0 = no effect, 100 = complete control
Procedure, shortened: (§1)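 Rated visually against untreated controls after approx. 10 d in greenhouse, scale 0 = no effect, 100 = complete control. Seeded loam/sand blend given directed soil spray preemergence, or plants sprayed at one- to two-leaf stage, 2-10 cm tall; surfactant-containing non-phytotoxic solvent formulation.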

[2] = test system: foxtail, giant (giant foxtail, Setaria faberii); assay: as above; settings: approx. 10 d, 0 = no effect, 100 = complete control
Procedure, shortened: as §1

[3] = test system: kochia (Kochia scoparia); assay: as above; settings: approx. 10 d, 0 = no effect, 100 = complete control
Procedure, shortened: as §1

[4] = test system: pigweed (Amaranthus retroflexus); assay: as above; settings: approx. 10 d, 0 = no effect, 100 = complete control
Procedure, shortened: as §1

[5] = test system: ragweed (common ragweed, Ambrosia elation); assay: as above; settings: approx. 10 d, 0 = no effect, 100 = complete control
Procedure, shortened: as §1

[6] = test system: ryegrass, Italian (Italian ryegrass, Lolium multiflorum); assay: as above; settings: approx. 10 d, 0 = no effect, 100 = complete control
Procedure, shortened: as §1

[7] = test system: barnyardgrass (Echinochloa crus-galli); assay: Test A postemergence application, visual injury rating; settings: approx. 10 d, 0 = no effect, 100 = complete control
Procedure, shortened: as §1

[8] = test system: blackgrass (Alopecurus myosuroides); assay: as above; settings: approx. 10 d, 0 = no effect, 100 = complete control
Procedure, shortened: as §1

[9] = test system: corn (Zea mays); assay: as above; settings: approx. 10 d, 0 = no effect, 100 = complete control
Procedure, shortened: as §1

[10] = test system: foxtail, giant (giant foxtail, Setaria faberii); assay: as above; settings: approx. 10 d, 0 = no effect, 100 = complete control
Procedure, shortened: as §1

[11] = test system: galium (catchweed bedstraw, Galium aparine); assay: as above; settings: approx. 10 d, 0 = no effect, 100 = complete control
Procedure, shortened: as §1

[12] = test system: kochia (Kochia scoparia); assay: as above; settings: approx. 10 d, 0 = no effect, 100 = complete control
Procedure, shortened: as §1

[13] = test system: pigweed (Amaranthus retroflexus); assay: as above; settings: approx. 10 d, 0 = no effect, 100 = complete control
Procedure, shortened: as §1

[14] = test system: ragweed (common ragweed, Ambrosia elation); assay: as above; settings: approx. 10 d, 0 = no effect, 100 = complete control
Procedure, shortened: as §1

[15] = test system: ryegrass, Italian (Italian ryegrass, Lolium multiflorum); assay: as above; settings: approx. 10 d, 0 = no effect, 100 = complete control
Procedure, shortened: as §1

[16] = test system: wheat (Triticum aestivum); assay: as above; settings: approx. 10 d, 0 = no effect, 100 = complete control
Procedure, shortened: as §1

[17] = test system: barnyardgrass (Echinochloa crus-galli); assay: Test B flooded paddy test, visual plant response rating; settings: 250 g ai/ha; applied to paddy water at 2-leaf stage; rated after 13 to 15 days; scale 0 to 100, 0 is no effect, 100 is complete control
Procedure, shortened: (§2)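 Visual 0–100 scores (0 none, 100 complete control) versus controls were taken 13 to 15 days after treatment in a greenhouse. Treatment was applied into flood water kept at 3 cm over the soil surface for the whole test.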

[18] = test system: ducksalad (Heteranthera limosa); assay: as above; settings: 250 g ai/ha; applied to paddy water at 2-leaf stage; rated after 13 to 15 days; scale 0 to 100, 0 is no effect, 100 is complete control
Procedure, shortened: as §2

[19] = test system: rice (Oryza sativa); assay: as above; settings: 250 g ai/ha; applied to paddy water at 2-leaf stage; rated after 13 to 15 days; scale 0 to 100, 0 is no effect, 100 is complete control
Procedure, shortened: as §2

[20] = test system: sedge, umbrella (small-flower umbrella sedge, Cyperus difformis); assay: as above; settings: 250 g ai/ha; applied to paddy water at 2-leaf stage; rated after 13 to 15 days; scale 0 to 100, 0 is no effect, 100 is complete control
Procedure, shortened: as §2

Structure (SMILES)	Barnyardgrass plant response rating (0 to 100 scale) ([1]; 125 g ai/ha)	Barnyardgrass plant response rating (0 to 100 scale) ([1]; 500 g ai/ha)	Foxtail, Giant plant response rating (0 to 100 scale) ([2]; 125 g ai/ha)	Foxtail, Giant plant response rating (0 to 100 scale) ([2]; 500 g ai/ha)	Kochia plant response rating (0 to 100 scale) ([3]; 125 g ai/ha)	Kochia plant response rating (0 to 100 scale) ([3]; 500 g ai/ha)	Pigweed plant response rating (0 to 100 scale) ([4]; 125 g ai/ha)	Pigweed plant response rating (0 to 100 scale) ([4]; 500 g ai/ha)	Ragweed plant response rating (0 to 100 scale) ([5]; 125 g ai/ha)	Ragweed plant response rating (0 to 100 scale) ([5]; 500 g ai/ha)	Ryegrass, Italian plant response rating (0 to 100 scale) ([6]; 125 g ai/ha)	Ryegrass, Italian plant response rating (0 to 100 scale) ([6]; 500 g ai/ha)	Barnyardgrass plant response rating (0 to 100 scale) ([7]; 125 g ai/ha)	Barnyardgrass plant response rating (0 to 100 scale) ([7]; 500 g ai/ha)	Blackgrass plant response rating (0 to 100 scale) ([8]; 125 g ai/ha)	Blackgrass plant response rating (0 to 100 scale) ([8]; 500 g ai/ha)	Corn plant response rating (0 to 100 scale) ([9]; 125 g ai/ha)	Corn plant response rating (0 to 100 scale) ([9]; 500 g ai/ha)	Foxtail, Giant plant response rating (0 to 100 scale) ([10]; 125 g ai/ha)	Foxtail, Giant plant response rating (0 to 100 scale) ([10]; 500 g ai/ha)	further results
Cc1nnc2n1CC(c1ccc(Cl)cc1)C2C(=O)Nc1ccccc1F (stereo not drawn) [Compound 21]	0	40	0	70	0	40	0	0	0	0	40	40	0	40	0	20	0	0	0	70	Galium plant response rating (0 to 100 scale) ([11]; 125 g ai/ha): 0; Galium plant response rating (0 to 100 scale) ([11]; 500 g ai/ha): 50; Kochia plant response rating (0 to 100 scale) ([12]; 125 g ai/ha): 0; Kochia plant response rating (0 to 100 scale) ([12]; 500 g ai/ha): 0; Pigweed plant response rating (0 to 100 scale) ([13]; 125 g ai/ha): 0; Pigweed plant response rating (0 to 100 scale) ([13]; 500 g ai/ha): 0; Ragweed plant response rating (0 to 100 scale) ([14]; 125 g ai/ha): 0; Ragweed plant response rating (0 to 100 scale) ([14]; 500 g ai/ha): 0; Ryegrass, Italian plant response rating (0 to 100 scale) ([15]; 125 g ai/ha): 0; Ryegrass, Italian plant response rating (0 to 100 scale) ([15]; 500 g ai/ha): 20; Wheat plant response rating (0 to 100 scale) ([16]; 125 g ai/ha): 0; Wheat plant response rating (0 to 100 scale) ([16]; 500 g ai/ha): 0; Plant response rating, Flood, Barnyardgrass [17]: 0; Plant response rating, Flood, Ducksalad [18]: 40; Plant response rating, Flood, Rice [19]: 0; Plant response rating, Flood, Sedge, Umbrella [20]: 0
O=C(Nc1cccc(F)c1F)C1c2nnc(C(F)(F)F)n2CC1c1ccc(C(F)(F)F)cc1 (stereo not drawn) [Compound 22, N-(2,3-difluorophenyl)-6,7-dihydro-3-(trifluoromethyl)-6-[4-(trifluoromethyl)phenyl]-5H-pyrrolo[2,1-c]-1,2,4-triazole-7-carboxamide]	0	20	0	30	0	0	0	0	0	0	0	0	0	0	0	0	0	0	0	0	Galium plant response rating (0 to 100 scale) ([11]; 125 g ai/ha): 0; Galium plant response rating (0 to 100 scale) ([11]; 500 g ai/ha): 0; Kochia plant response rating (0 to 100 scale) ([12]; 125 g ai/ha): 0; Kochia plant response rating (0 to 100 scale) ([12]; 500 g ai/ha): 0; Pigweed plant response rating (0 to 100 scale) ([13]; 125 g ai/ha): 0; Pigweed plant response rating (0 to 100 scale) ([13]; 500 g ai/ha): 0; Ragweed plant response rating (0 to 100 scale) ([14]; 125 g ai/ha): 0; Ragweed plant response rating (0 to 100 scale) ([14]; 500 g ai/ha): 0; Ryegrass, Italian plant response rating (0 to 100 scale) ([15]; 125 g ai/ha): 0; Ryegrass, Italian plant response rating (0 to 100 scale) ([15]; 500 g ai/ha): 0; Wheat plant response rating (0 to 100 scale) ([16]; 125 g ai/ha): 0; Wheat plant response rating (0 to 100 scale) ([16]; 500 g ai/ha): 0; Plant response rating, Flood, Barnyardgrass [17]: 0; Plant response rating, Flood, Ducksalad [18]: 30; Plant response rating, Flood, Rice [19]: 0; Plant response rating, Flood, Sedge, Umbrella [20]: 0
CCc1ccc(C2Cn3c(C)nnc3C2C(=O)Nc2cccc(F)c2F)cc1 (stereo not drawn) [Compound 23]	60	90	70	90	20	40	0	20	0	0	0	0	50	90	0	20	0	20	30	70	Galium plant response rating (0 to 100 scale) ([11]; 125 g ai/ha): 0; Galium plant response rating (0 to 100 scale) ([11]; 500 g ai/ha): 30; Kochia plant response rating (0 to 100 scale) ([12]; 125 g ai/ha): 30; Kochia plant response rating (0 to 100 scale) ([12]; 500 g ai/ha): 30; Pigweed plant response rating (0 to 100 scale) ([13]; 125 g ai/ha): 0; Pigweed plant response rating (0 to 100 scale) ([13]; 500 g ai/ha): 0; Ragweed plant response rating (0 to 100 scale) ([14]; 125 g ai/ha): 0; Ragweed plant response rating (0 to 100 scale) ([14]; 500 g ai/ha): 0; Ryegrass, Italian plant response rating (0 to 100 scale) ([15]; 125 g ai/ha): 0; Ryegrass, Italian plant response rating (0 to 100 scale) ([15]; 500 g ai/ha): 0; Wheat plant response rating (0 to 100 scale) ([16]; 125 g ai/ha): 0; Wheat plant response rating (0 to 100 scale) ([16]; 500 g ai/ha): 0; Plant response rating, Flood, Barnyardgrass [17]: 0; Plant response rating, Flood, Ducksalad [18]: 80; Plant response rating, Flood, Rice [19]: 0; Plant response rating, Flood, Sedge, Umbrella [20]: 0
Cc1nnc2n1CC(c1ccc(C(F)(F)F)cc1)C2C(=O)Nc1ccccc1F (stereo not drawn) [Compound 24, N-(2-fluorophenyl)-6,7-dihydro-3-methyl-6-[4-(trifluoromethyl)phenyl]-5H-pyrrolo[2,1-c]-1,2,4-triazole-7-carboxamide]	0	40	30	90	0	60	0	20	0	30	0	30	30	80	0	50	0	40	40	80	Galium plant response rating (0 to 100 scale) ([11]; 125 g ai/ha): 0; Galium plant response rating (0 to 100 scale) ([11]; 500 g ai/ha): 60; Kochia plant response rating (0 to 100 scale) ([12]; 125 g ai/ha): 0; Kochia plant response rating (0 to 100 scale) ([12]; 500 g ai/ha): 0; Pigweed plant response rating (0 to 100 scale) ([13]; 125 g ai/ha): 0; Pigweed plant response rating (0 to 100 scale) ([13]; 500 g ai/ha): 20; Ragweed plant response rating (0 to 100 scale) ([14]; 125 g ai/ha): 0; Ragweed plant response rating (0 to 100 scale) ([14]; 500 g ai/ha): 0; Ryegrass, Italian plant response rating (0 to 100 scale) ([15]; 125 g ai/ha): 0; Ryegrass, Italian plant response rating (0 to 100 scale) ([15]; 500 g ai/ha): 20; Wheat plant response rating (0 to 100 scale) ([16]; 125 g ai/ha): 0; Wheat plant response rating (0 to 100 scale) ([16]; 500 g ai/ha): 30; Plant response rating, Flood, Barnyardgrass [17]: 0; Plant response rating, Flood, Ducksalad [18]: 0; Plant response rating, Flood, Rice [19]: 0; Plant response rating, Flood, Sedge, Umbrella [20]: 0
